Test results taken from PubChem BioAssay (NCI).
“And” between values parts separate entries of the source, which are not always exact repeats. Equal entries are not always repeated.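 In this assay, cells in 96-well plates receive the compound at five concentrations for 48 hours. Endpoints are linearly interpolated between the surrounding concentrations. GI50: concentration for 50% inhibition of growth. TGI: concentration producing complete growth inhibition.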

Experiments:
Assay in all cases: NCI tumour cell line growth inhibition, 48 h
[1] = test system: SF-539 CNS
[2] = test system: ACHN renal
[3] = test system: UACC-62 melanoma
[4] = test system: A549 NSCLC
[5] = test system: NCI-H522 lung
[6] = test system: HCT-116 colon
[7] = test system: RXF 393 renal
[8] = test system: EKVX NSCLC
[9] = test system: MOLT-4 leukemia
[10] = test system: SK-MEL-2 melanoma

SMILES	GI50 [1]	TGI [1]	GI50 [2]	TGI [2]	GI50 [3]	TGI [3]	GI50 [4]	TGI [4]	GI50 [5]	TGI [5]	GI50 [6]	TGI [6]	GI50 [7]	TGI [7]	GI50 [8]	TGI [8]	GI50 [9]	TGI [9]	GI50 [10]	TGI [10]
CCN(CC)CCOc1ccc(C2=C(c3ccccc3)CCc3cc(OC)ccc32)cc1	1.52 µM	2.89 µM	4.2 µM	15.4 µM	1.87 µM	3.9 µM	4.02 µM	16.2 µM	3.03 µM	9.25 µM	1.55 µM	4.19 µM	10.2 µM	35.9 µM	3.44 µM	14 µM	4.64 µM	21.3 µM	2.15 µM	4.67 µM
CCOC(=N)CC(=O)NC(C)c1ccccc1 (stereo not given)		> 100 µM		> 100 µM		> 100 µM		> 100 µM		> 100 µM		> 100 µM		> 100 µM		> 100 µM		> 100 µM		> 100 µM
C=C(C)[C@@H]1CCC[C@]2(C(=O)O)CC[C@]3(C)[C@@H](CC[C@@H]4[C@@]5(C)C/C(=C/c6ccncc6)C(=O)C(C)(C)[C@@H]5CC[C@]43C)[C@@H]12	2.7 µM	11.9 µM	2.84 µM	11 µM	2.05 µM	5.68 µM	1.72 µM	5.26 µM	2.74 µM	9.14 µM	1.36 µM	2.8 µM	2.09 µM	4.47 µM	3.2 µM	46.3 µM	2.07 µM	> 100 µM	2.59 µM	6.72 µM
CC1SC2(CCCCC2)N(NC(=O)c2[nH]c3ccc(F)cc3c2-c2ccccc2)C1=O (stereo not given)	> 100 µM	> 100 µM	> 100 µM	> 100 µM	21.2 µM	> 100 µM	72.3 µM	> 100 µM	54.4 µM	> 100 µM	64.9 µM	> 100 µM	28.3 µM	> 100 µM	> 100 µM	> 100 µM	> 100 µM	> 100 µM	76.2 µM	> 100 µM
CN1c2ccccc2C(=O)Nc2cnc(Cl)nc21		> 100 µM		> 100 µM		> 100 µM		> 100 µM		> 100 µM		> 100 µM		> 100 µM		> 100 µM		> 100 µM		> 100 µM
CC(C)n1nc(C#Cc2cccc(NC(=O)c3cccc(C(F)(F)F)c3)c2)c2c(N)ncnc21	0.445 µM	2.33 µM	1.01 µM	5.72 µM	0.19 µM	1.24 µM	3.29 µM	64.4 µM	1.83 µM	9.11 µM	0.308 µM	3.89 µM	1.02 µM	2.49 µM	3.46 µM	> 100 µM	1.36 µM	61.3 µM	0.308 µM	1.96 µM
Nc1ccc2c(c1)CN1C(=O)c3ccccc3C1=N2	5.29 µM	95.8 µM	34 µM	> 125 µM	52.9 µM	> 116 µM		> 125 µM	12.8 µM	112 µM	29.7 µM	> 125 µM		102 µM	72.2 µM	> 125 µM	19.2 µM	96.5 µM and 58.2 µM		> 125 µM
COc1cc(C2c3cc4c(cc3[C@@H](Nc3cccc(O)c3)C3COC(=O)[C@H]23)OCO4)cc(OC)c1O (stereo not given in full)	0.482 µM	4.53 µM	0.356 µM	3.56 µM	0.603 µM	7.08 µM	0.579 µM	7.03 µM	0.571 µM	5.51 µM	0.804 µM	23.3 µM	0.418 µM	9.23 µM		15 µM	0.1 µM	0.911 µM		15 µM
C=C(CC1(CC(=C)c2ccc(C(=O)O)cc2)C(=O)N(C)C(=O)N(C)C1=O)c1ccc(C(=O)O)cc1	> 100 µM	> 100 µM	> 100 µM	> 100 µM	42.7 µM	> 100 µM	> 100 µM	> 100 µM	31.3 µM	> 100 µM	49.6 µM	> 100 µM	> 100 µM	> 100 µM	> 100 µM	> 100 µM	38.3 µM	> 100 µM	> 100 µM	> 100 µM
Nc1ncnc2c1ncn2Cc1ccc(C23CC4CC(CC(C4)C2)C3)c(O)c1	23.4 µM	75.1 µM	15.6 µM	> 100 µM	31.8 µM	> 100 µM	6.52 µM	77.4 µM	25.6 µM	> 100 µM	8.91 µM	> 100 µM	8.06 µM	39.7 µM	33.4 µM	> 100 µM	6.72 µM	> 100 µM	> 100 µM	> 100 µM
COc1cc(OC)cc(N2CCN(C(=O)Nc3nc4cc(F)ccc4nc3OC)CC2)c1	0.0195 µM and 0.0228 µM and 0.0136 µM		0.0129 µM and 0.0608 µM and 0.0408 µM	25.6 µM and > 100 µM	< 0.01 µM and 0.0142 µM	27.2 µM and 21.9 µM	0.0367 µM and 0.0449 µM and 0.0357 µM	> 100 µM	0.012 µM and 0.0225 µM	0.534 µM and 0.581 µM and 0.146 µM	0.0381 µM and 0.0332 µM and 0.0334 µM	1.54 µM and 0.214 µM	< 0.01 µM and 0.016 µM	40.7 µM and 66.1 µM	0.0543 µM and 0.345 µM and 0.0636 µM	> 87.1 µM and 66.6 µM	0.049 µM and 0.0457 µM and 0.044 µM	31.1 µM and 30.7 µM	0.277 µM and 0.0666 µM and 0.0306 µM	29.1 µM and 10.8 µM
CCCOc1c2cc(COC3OC(CO)C(O)C(O)C3O)cc1Cc1cc(COC3OC(CO)C(O)C(O)C3O)cc(c1OCCC)Cc1cc(COC3OC(CO)C(O)C(O)C3O)cc(c1OCCC)Cc1cc(COC3OC(CO)C(O)C(O)C3O)cc(c1OCCC)C2 (stereo not given)	> 100 µM and 25 µM	> 100 µM and 79.8 µM	> 100 µM and 23.9 µM	> 100 µM and 63.4 µM	90.7 µM and > 100 µM and 16 µM	> 100 µM and 35 µM	49.5 µM and > 100 µM and 26.9 µM	> 100 µM and 94.4 µM	32.4 µM and 72.8 µM and 13.7 µM	> 100 µM and 26.6 µM	48.6 µM and > 100 µM and 16.7 µM	> 100 µM and 32.2 µM	14.2 µM and 23.9 µM	33.9 µM and 87 µM and 77.4 µM	> 100 µM and 35.5 µM	> 100 µM		29 µM	57 µM and 96.4 µM and 15.7 µM	> 100 µM and 35.6 µM
O=[N+]([O-])O.[NH-]C1CCCCC1[NH-].[NH-]C1CCCCC1[NH-].[NH-]C1CCCCC1[NH-].[OH-].[OH-].[OH-].[Pt+4].[Pt+4].[Pt+4] (stereo not given)	1.31 µM	> 68.8 µM	0.164 µM		0.3 µM	16.5 µM	0.319 µM	31.3 µM	0.212 µM	2.98 µM	0.0709 µM		1.2 µM	17.3 µM	30.1 µM	> 100 µM	0.0283 µM	2.2 µM	2.05 µM	30.5 µM
O=C(NO)C(O)C(O)C(O)C(O)CO (stereo not given)	> 100 µM	> 100 µM	> 100 µM	> 100 µM	84.2 µM and 38.6 µM	> 100 µM	> 100 µM and 54.1 µM	> 100 µM	> 100 µM and 44.7 µM	> 100 µM	> 100 µM and 27.1 µM	> 100 µM and 73.5 µM	> 100 µM	> 100 µM	> 100 µM	> 100 µM	> 100 µM	> 100 µM	> 100 µM and 76.6 µM	> 100 µM
CC(=O)N[C@@H]1CCC[C@H](C(=O)Nc2cc(-c3cnn4c3CC(C)(C)C4)c(Cl)cn2)C1	< 0.01 µM	0.0187 µM	< 0.015 µM	> 100 µM	< 0.01 µM	0.0549 µM	< 0.0108 µM	> 100 µM	0.013 µM	0.0588 µM	< 0.01 µM	> 100 µM	< 0.01 µM	< 0.01 µM	0.0197 µM		< 0.0117 µM	0.13 µM	0.0121 µM	0.041 µM
CC(=O)Nc1ccc(-n2cnc3cc(-c4ccc(OCCN5CCCCC5)cc4)ccc32)cc1	1.64 µM	6.47 µM	3.61 µM	11.4 µM	6.79 µM	13 µM	1.4 µM	5.74 µM	6.79 µM	13.7 µM	0.667 µM	1.3 µM	3.04 µM	8.04 µM	7.88 µM	28 µM	5.71 µM	25 µM	5.81 µM	11.5 µM
CCOC(=O)NNC(=O)NC12CC3CC(CC(C3)C1)C2		> 100 µM		> 100 µM		> 100 µM		> 100 µM		> 100 µM		> 100 µM		> 100 µM		> 100 µM		> 100 µM		> 100 µM
CC(C)(C)NCCC(O)c1cc(C(F)(F)F)nc2c(C(F)(F)F)cccc12 (stereo not given)		31 µM		21.1 µM		25.3 µM		13.5 µM		25.1 µM		17.1 µM		19.2 µM		27.2 µM		18.6 µM		24.6 µM
O=C(CC(C(=O)O)N1CCOCC1)c1ccccc1 (stereo not given)		45.7 µM		30.7 µM		29.5 µM		> 100 µM		> 100 µM		27 µM		34.3 µM		38.4 µM		35.5 µM		34.9 µM
